For one assay, the system named is AML12 mouse hepatocytes. Description: Western blot of insulin signaling and cullin neddylation in AML12 cells. Format: cell-based. On the procedure: MLN4924 increases IRS protein and AKT activation in the presence of insulin. Mouse AML 12 hepatocytes were serum starved for 16 h. Cells were then pre-treated with MLN4924 for 1 h followed by 100 nM insulin stimulation for 4 h. Western blot was then performed to evaluate insulin signaling activation.
AML 12 cells were serum starved for 16 h. Cells were then pre-treated with 500 nM MLN4924 or vehicle (DMSO) for 1 h, followed by 100 µg/ml cycloheximide (CHX) and 100 nM insulin treatment.
AML12 cells were serum starved for 16 h. Cells were then pre-treated with 500 nM MLN4924 for 1 h followed by 100 nM insulin stimulation in time course.
FIG. 18A is a Western blot analysis showing that MLN4924 enhances hepatocyte insulin responsiveness (signaling) by delaying feedback IRS degradation. AML12 cells were serum starved for 16 h. Cells were then pre-treated with MLN4924 for 1 h followed by insulin stimulation for 4 h.
FIG. 18D is a Western blot analysis of insulin signaling in AML12 cells serum starved for 16 h, then pre-treated with 500 nM MLN4924 for 1 h followed by 100 nM insulin stimulation in time course.
FIG. 18E is a Western blot analysis of AML12 cells serum starved for 16 h then pre-treated with 500 nM MLN4924 or vehicle (DMSO) for 1 h, followed by 100 µg/ml cycloheximide (CHX) and 100 nM insulin treatment. Cells were collected at the indicated time for Western blotting.
FIG. 18F is a Western blot analysis of insulin signaling in AML12 cells serum starved for 16 h then pre-treated with 100 nM rapamycin and 500 nM MLN4924 as indicated for 1 h followed by additional 2 h incubation in the presence or absence of 100 nM insulin. Blots are representative of 2-4 independent experiments.
FIG. 20 is a Western blot analysis showing that MLN4924 enhances hepatocyte insulin responsiveness in cells treated with wortmannin by delaying feedback IRS degradation (related to FIG. 18A). AML12 cells were serum starved for 16 h then pre-treated with 1 µM wortmannin (Wort) and 500 nM MLN4924 as indicated for 1 h followed by additional 2 h incubation in the presence or absence of 100 nM insulin. Blots are representative of 2 independent experiments.
FIG. 21 is a Western blot analysis showing that MLN4924 enhances hepatocyte insulin responsiveness in cells treated with Torin 1 by delaying feedback IRS degradation (related to FIG. 18A). AML12 cells were serum starved for 16 h then pre-treated with 250 nM Torin1 and 500 nM MLN4924 as indicated for 1 h followed by additional 2 h incubation in the presence or absence of 100 nM insulin. Blots are representative of 2 independent experiments.
MLN4924 and TAS4464 were purchased from MedChemExpress (MCE, Monmouth Junction, NJ). For cell treatment, MLN4924 and TAS4464 were dissolved in DMSO. Cells were serum starved overnight and then treated with MLN4924, TAS4464 and/or insulin as indicated. For injection in mice, MLN4924 and TAS4464 were first dissolved in DMSO, which was further suspended in 10% (2-hydroxypropyl)-β-cyclodextrin (Sigma, St. Louis, MO). The final solution contains 1% DMSO. The subcutaneous injection volume is 200 µl/mouse.
Protein lysates were prepared in RIPA buffer containing 1% SDS and protease inhibitors on ice for 1 h followed by brief sonication. After centrifugation, supernatant was used for SDS-PAGE and immunoblotting.
AML12 cells were a generous gift from Dr. Yanqiao Zhang (Northeast Ohio Medical University). AML12 cells were cultured in DMEM medium supplemented with a mixture of insulin-transferrin-selenium (#41400-045, ThermoFisher, Waltham, MA). For experiments, cells were cultured in serum free medium overnight before various treatments were initiated. The siGENOME SMARTpool siRNA and siControl were purchased from Dharmacon, Inc. (Lafayette, CO). The siRNA was transfected with Lipofectamine RNAiMAX reagent in a final concentration of 25 nM recommended by the manufacturer. […]
On the technique in general: A western blot detects proteins with antibodies after separation by electrophoresis.

In another assay the test system is obese mice. Description: Hyperinsulinemic-euglycemic clamp study. Format: in vivo. How it is done:
A hyperinsulinemic-euglycemic clamp study was conducted in which obese mice were treated with vehicle or MLN4924.

Setting [1] is: insulin stimulated, MLN4924 pre-treatment 1 h, insulin 4 h.

Entries after “also recorded” stand apart in the source; their conditions may differ.

For `NS(=O)(=O)OC[C@@H]1C[C@@H](n2ccc3c(N[C@H]4CCc5ccccc54)ncnc32)C[C@@H]1O` [MLN4924, ((1S,2S,4R)-4-(4-((1S)-2,3-dihydro-1H-inden-1-ylamino)-7H-pyrrolo[2,3-d]pyrimidin-7-yl)-2-hydroxycyclopentyl) methyl sulfamate], the “IRS protein in the presence of rapamycin” value in the assay on AML12 mouse hepatocytes (500 nM MLN4924 + 100 nM rapamycin, 100 nM insulin) is reported as “did not further increase IRS protein”. Further, the “IRS1 S307 phosphorylation” value in the assay on AML12 mouse hepatocytes (500 nM, 100 nM insulin time course) is “also higher”. For the same compound, in the assay on AML12 mouse hepatocytes (500 nM, 1 h, then 100 nM insulin in time course), the “insulin signaling desensitization (IRS1(Y612), AKT(S473))” value is given as “significantly delayed cellular insulin desensitization; also recorded: significantly delayed insulin signaling desensitization”. Further, in the assay with AML12 mouse hepatocytes (500 nM, 100 µg/ml cycloheximide (CHX) and 100 nM insulin), the “insulin-induced IRS degradation” value is “significantly delayed”. Besides, the “further MLN4924-mediated IRS enrichment and insulin sensitization” value with AML12 mouse hepatocytes (Cul1 or Cul3 knockdown cells, 500 nM) was “limited but not fully abolished”. In addition, in the assay with AML12 mouse hepatocytes (setting [1]), the “AKT S473 phosphorylation” value was “increased AKT S473 phosphorylation”; the “IR (Y1150) phosphorylation” value is “but not IR (Y1150) phosphorylation”; the “IRS1(Y612) phosphorylation” value is recorded as “enhanced IRS1(Y612) phosphorylation”; the “total IRS1 and IRS2 protein” value was “dose-dependently increased total IRS1 and IRS2 protein”. Also, in the assay on AML12 mouse hepatocytes (simultaneous knockdown of Cul1 and Cul3, 500 nM), the “further IRS protein stabilization caused by MLN4924” value is “largely abolished”. In addition, in the assay with obese mice, the glucose infusion rate is reported as ~ 30 mg/kg/min and the “plasma insulin level during the clamp procedure” value was ~ 3.75 ng/ml.

(Values after patent US20230218654A1, “COMPOSITIONS AND METHODS FOR TREATING HYPERGLYCEMIA IN TYPE-2 DIABETES” (The Board of Regents of the university of Oklahoma, priority 2020, published 2023).)
